Inconclusive results and toxic doses are left out. No stated cut-off is given here; in the data, active means T/C of 150% or more; inactive means T/C below 125%.
Test system: L1210 leukemia ip in BDF1 mice, survival T/C
Test: NCI In Vivo Anticancer Drug Screen. Data for tumor model L1210 Leukemia (intraperitoneal) in B6D2F1 (BDF1) mice
Conditions: endpoint: mean survival time, higher = longer survival
In short: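 Tumor was transplanted into mice, which were then dosed with test compound or vehicle alone. Survival was recorded for each group, and the treated figure was expressed relative to the control figure.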

Measured: T/C

O=C(Nc1ccc(Cl)cc1)c1ccccc1Cl
inactive: dose: 100.0 mg/kg/injection, schedule: Q04DX002 (ip), vehicle: Klucel (hydroxypropylcellulose) (HPC) 93 % of control | dose: 200.0 mg/kg/injection, schedule: Q04DX002 (ip), vehicle: Klucel (hydroxypropylcellulose) (HPC) 100 % of control | dose: 400.0 mg/kg/injection, schedule: Q04DX002 (ip), vehicle: Klucel (hydroxypropylcellulose) (HPC) 100 % of control

CCOc1cccc(Cc2cn(Cc3cccc(NC(=O)c4ccccc4)c3)c(=O)[nH]c2=O)c1
inactive: dose: 100.0 mg/kg/injection, schedule: Q01DX001 (ip), vehicle: saline with Tween-80 93 % of control | dose: 200.0 mg/kg/injection, schedule: Q01DX001 (ip), vehicle: saline with Tween-80 96 % of control | dose: 400.0 mg/kg/injection, schedule: Q01DX001 (ip), vehicle: saline with Tween-80 95 % of control

N#CCC[CH2][Sn]([Br])([Br])[c]1ccccc1
inactive: dose: 3.12 mg/kg/injection, schedule: Q04DX003 (ip), vehicle: saline 91 % of control | dose: 6.25 mg/kg/injection, schedule: Q04DX003 (ip), vehicle: saline 96 % of control | dose: 12.5 mg/kg/injection, schedule: Q04DX003 (ip), vehicle: saline 91 % of control

From PubChem BioAssay AID248 (DTP/NCI, 2004)
